Reference: patent US12558428B2, “Heterobifunctional compounds and their use in treating disease” (Halda Therapeutics OpCo, Inc., priority 2024, dated 2026)
Where two headings read alike, the source gives them in different places.

Tests used:
Type in all cases: cell-based
[1] = tested on: T-Rex 293 cells having increased expression of estrogen receptor alpha protein; test: Cellular growth inhibition assay, T-Rex 293 cells, (+) doxycycline; conditions: 72 hours
Method in brief: (§1)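 Viability read-out was CellTiter-Glo 2.0 luminescence after 72 h compound exposure, normalized to zero luminescence and fitted by four-parameter regression to give GI50. Cells were an ERα-inducible T-Rex 293 clone cultured with or without 3 ng/mL doxycycline in charcoal-stripped, phenol red-free medium.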

[2] = tested on: T-Rex 293 cells lacking increased expression of estrogen receptor alpha protein; test: Cellular growth inhibition assay, T-Rex 293 cells, (−) doxycycline; conditions: 72 hours
Method in brief: as §1

[3] = tested on: MCF7 cells (ATCC #HTB-22); test: Cellular growth inhibition assay, MCF7 cells purchased from ATCC; conditions: Table 8-A, MCF7 cells purchased from ATCC, six days, CellTiter-Glo, read-out: GI50
Method in brief: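 MCF7 cells in RPMI 1640 with 10% FBS and 0.2 U/ml insulin, seeded at 1,500 cells/well (ATCC) or 225 cells/well (ECACC). Compounds added 24 h later, then 6 days at 37° C. Viability by CellTiter-Glo 2.0 luminescence. GI50 from four-parameter fit.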

[4] = T-REx-293, 72 h, Table 7-A, T-Rex 293 cells with doxycycline (increased ERα expression), CellTiter-Glo, read-out: (+) Dox GI50
[5] = T-REx-293, 72 h, Table 7-A, T-Rex 293 cells without doxycycline (lacking increased ERα expression), CellTiter-Glo, read-out: (−) Dox GI50
[6] = T-REx-293, 72 h, T-Rex 293 cells with doxycycline-induced ERα expression, CellTiter-Glo 2.0, read-out: (+) Dox TRex ERa (GI50)
[7] = T-REx-293, 72 h, T-Rex 293 cells without doxycycline, CellTiter-Glo 2.0, read-out: (−) Dox TRex ERa (GI50)

| SMILES | GI50 [1, 4] [nM] | GI50 [2, 5] [nM] | GI50 ([3]; Homo sapiens, MCF7, 144 h) [nM] | GI50 ([1]; Table 7-A, T-Rex 293 cells with doxycycline (increased ERα expression), CellTiter-Glo, read-out: (+) Dox GI50) [nM] | GI50 ([2]; Table 7-A, T-Rex 293 cells without doxycycline (lacking increased ERα expression), CellTiter-Glo, read-out: (−) Dox GI50) [nM] | GI50 [3] [nM] | GI50 [1, 6] [nM] | GI50 [2, 7] [nM] |
| --- | --- | --- | --- | --- | --- | --- | --- | --- |
| Cc1sc2c(c1C)C(c1ccc(N3CCC(CN4CCN(c5ccc(C6=C(c7ccccc7Cl)CCCc7cc(C(=O)O)ccc76)c(F)c5)CC4)CC3)cc1)=N[C@@H](Cc1ncco1)c1nnc(C)n1-2 [IV-49] | < 50 | 500 to 2500 | < 50 | – | – | – | – | – |
| Cc1sc2c(c1C)C(c1ccc(N3CCC(C#N)(CN4CCN(c5ccc([C@@H]6c7ccc(O)cc7CC[C@@H]6c6ccccc6)cc5)CC4)CC3)cc1)=N[C@@H](C)c1nnc(C)n1-2 [III-150] | < 50 | 500 to 2500 | 50 to 500 | – | – | – | – | – |
| Cc1sc2c(c1C)C(c1ccc(N3CCC(CN4CCN(c5ccc([C@H]6c7ccc(O)cc7CC[C@H]6c6ccccc6)cc5)CC4)CC3)cc1)=N[C@H](Cc1ncco1)c1nnc(C)n1-2 [III-71] | – | – | – | > 2500 | > 2500 | > 2500 | – | – |
| Cc1sc2c(c1C)C(c1ccc(N[C@H]3CC[C@H](NCCOc4ccc([C@@H]5c6ccc(O)cc6CC[C@@H]5c5ccccc5)cc4)CC3)cc1)=NC(Cc1ncco1)c1nnc(C)n1-2 (stereo partly drawn) [III-58] | < 50 | 50 to 500 | 50 to 500 | – | – | – | – | – |
| Cc1sc2c(c1C)C(c1ccc(N3CC(CN4CC(Oc5ccc([C@H]6c7ccc(O)cc7CC[C@H]6c6ccccc6)cc5)C4)C3)cc1)=N[C@@H](C)c1nnc(C)n1-2 [III-100] | 50 to 500 | 50 to 500 | 50 to 500 | – | – | – | – | – |
| Cc1sc2c(c1C)C(c1ccc(N3CC(CC4CCN(c5ccc([C@@H]6c7ccc(O)cc7CC[C@@H]6c6ccccc6)cc5)CC4)C3)cc1)=N[C@@H](C)c1nnc(C)n1-2 [III-138] | 500 to 2500 | > 2500 | 500 to 2500 | – | – | – | – | – |
| Cc1sc2c(c1C)C(c1ccc(C3CN(C[C@H]4C[C@@H](CN5CC(c6ccc([C@@H]7c8ccc(O)cc8CC[C@@H]7c7ccccc7)cc6)C5)C4)C3)cc1)=N[C@@H](C)c1nnc(C)n1-2 [III-260] | < 50 | 500 to 2500 | 50 to 500 | – | – | – | – | – |
| Cc1sc2c(c1C)C(c1ccc(N3CCC(O)(CN4CCN(c5ccc([C@@H]6c7ccc(O)cc7CC[C@@H]6c6cccc(F)c6F)c(F)c5)CC4)CC3)cc1)=N[C@@H](C)c1nnc(C)n1-2 [III-272] | < 50 | 500 to 2500 | < 50 | – | – | – | – | – |
| CC1=C(c2c(F)cc(F)cc2F)[C@H](c2ccc(N3CCN(C(=O)C4CCN(c5ccc(C6=N[C@@H](C)c7nnc(C)n7-c7sc(C)c(C)c76)cc5)CC4)CC3)cc2)Oc2ccc(O)cc21 [V-15] | < 50 | 50 to 500 | 50 to 500 | – | – | – | – | – |
| Cc1sc2c(c1C)C(c1ccc(N3CC(CN4CCC(c5ccc([C@@H]6c7ccc(O)cc7CC[C@@H]6c6ccccc6)cc5)CC4)C3)cc1)=N[C@@H](C)c1nnc(C)n1-2 [III-148] | < 50 | 500 to 2500 | < 50 | – | – | – | – | – |
| Cc1sc2c(c1C)C(c1ccc(Cl)cc1)=N[C@@H](CC(=O)NCCCCOCCOc1ccc(C(=O)c3c(-c4ccc(O)cc4)sc4cc(O)ccc34)cc1)c1nnc(C)n1-2 [I-17, (S)-2-(4-(4-chlorophenyl)-2,3,9-trimethyl-6H-thieno[3,2-f][1,2,4]triazolo[4,3-a][1,4]diazepin-6-yl)-N-(4-(2-(4-(6-hydroxy-2-(4-hydroxyphenyl)benzo[b]thiophene-3-carbonyl)phenoxy)ethoxy)butyl)acetamide] | – | – | 50 to 500 | – | – | – | 500 to 2500 | 500 to 2500 |
| Cc1sc2c(c1C)C(c1ccc(N3CCC(O)(CN4CCN(c5ccc([C@H]6c7ccc(O)cc7CC[C@H]6c6ccc(F)cc6)cc5Cl)CC4)CC3)cc1)=N[C@@H](C)c1nnc(C)n1-2 [III-301] | 500 to 2500 | 500 to 2500 | 50 to 500 | – | – | – | – | – |
| Cc1sc2c(c1C)C(c1ccc(N3CCN(CC4CCN(c5ccc([C@@H]6c7ccc(O)cc7CC[C@@H]6c6ccccc6)cc5)CC4)CC3)cc1)=N[C@H](Cc1nccs1)c1nnc(C)n1-2 [III-231] | > 2500 | > 2500 | 500 to 2500 | – | – | – | – | – |
| Cc1sc2c(c1C)C(c1ccc(N3CC(CC4(F)CCN(CC5CN(c6ccc([C@@H]7c8ccc(O)cc8CC[C@@H]7c7ccccc7)cc6)C5)CC4)C3)cc1)=N[C@@H](C)c1nnc(C)n1-2 [III-203] | < 50 | 500 to 2500 | < 50 | – | – | – | – | – |
| Cc1sc2c(c1C)C(c1ccc(OCCN3CCN(CCOc4ccc([C@@H]5c6ccc(O)cc6CC[C@@H]5c5ccccc5)cc4)CC3)cc1)=N[C@@H](Cc1ncco1)c1nnc(C)n1-2 [III-109] | < 50 | 50 to 500 | 50 to 500 | – | – | – | – | – |
| Cc1sc2c(c1C)C(c1ccc(N3CC(N4CCN(CCOc5ccc([C@H]6c7ccc(O)cc7CC[C@H]6c6ccccc6)cc5)CC4)C3)cc1)=N[C@@H](Cc1ncco1)c1nnc(C)n1-2 [III-114] | < 50 | 50 to 500 | 50 to 500 | – | – | – | – | – |
| Cc1sc2c(c1C)C(c1ccc(N3CCC(O)(CN4CCN(c5cc(F)c([C@H]6c7ccc(O)cc7CC[C@H]6c6ccccc6)cc5F)CC4)CC3)cc1)=N[C@@H](Cc1ncco1)c1nnc(C)n1-2 [III-300] | < 50 | 50 to 500 | 50 to 500 | – | – | – | – | – |
| Cc1sc2c(c1C)C(c1ccc(N3CCC(O)(CN4CCN(c5ccc([C@@H]6c7ccc(O)cc7CC[C@@H]6c6ccccc6)cc5)CC4)CC3)cc1)=N[C@@H](C)c1nnc(C)n1-2 [III-118] | < 50 | 500 to 2500 | 50 to 500 | – | – | – | – | – |
| Cc1sc2c(c1C)C(c1ccc(N3CCC(O)(CN4CCN(c5ccc([C@@H]6c7ccc(C(=O)O)cc7CC[C@@H]6c6ccc(F)cc6F)cc5)CC4)CC3)cc1)=N[C@@H](C)c1nnc(C)n1-2 [III-204] | < 50 | 500 to 2500 | 50 to 500 | – | – | – | – | – |
| Cc1sc2c(c1C)C(c1ccc(N3CCC(N4CCN(CCOc5ccc([C@@H]6c7ccc(O)cc7CC[C@@H]6c6ccccc6)cc5)CC4)CC3)cc1)=N[C@@H](Cc1ncco1)c1nnc(C)n1-2 [III-105] | < 50 | 50 to 500 | < 50 | – | – | – | – | – |
| Cc1sc2c(c1C)C(c1ccc(N3CCC(O)(CN4CCN(c5ccc(C6=C(c7ccccc7Cl)CCCc7cc(C(=O)O)ccc76)cc5)CC4)CC3)cc1)=N[C@@H](C)c1nnc(C)n1-2 [IV-18] | < 50 | 500 to 2500 | < 50 | – | – | – | – | – |
| Cc1sc2c(c1C)C(c1ccc(OCCCCC3CCN(CCOc4ccc(C(=O)c5c(-c6ccc(O)cc6)sc6cc(O)ccc56)cc4)CC3)cc1)=N[C@@H](Cc1ncco1)c1nnc(C)n1-2 [I-9, (S)-(6-hydroxy-2-(4-hydroxyphenyl)benzo[b]thiophen-3-yl)(4-(2-(4-(4-(4-(2,3,9-trimethyl-6-(oxazol-2-ylmethyl)-6H-thieno[3,2-f][1,2,4]triazolo[4,3-a][1,4]diazepin-4-yl)phenoxy)butyl)piperidin-1-yl)ethoxy)phenyl)methanone] | – | – | < 50 | – | – | – | < 50 | 50 to 500 |
| Cc1sc2c(c1C)C(c1ccc(CN3CC4(CCN(c5ccc([C@@H]6c7ccc(O)cc7CC[C@@H]6c6ccccc6)cc5)CC4)C3)cc1)=N[C@@H](C)c1nnc(C)n1-2 [III-107] | 50 to 500 | 500 to 2500 | 50 to 500 | – | – | – | – | – |
| Cc1sc2c(c1C)C(c1ccc(NC3CCCN(CCOc4ccc([C@@H]5c6ccc(O)cc6CC[C@@H]5c5ccccc5)cc4)CC3)cc1)=NC(Cc1ncco1)c1nnc(C)n1-2 (stereo partly drawn) [III-34] | < 50 | 50 to 500 | 50 to 500 | – | – | – | – | – |
| CC1=C(c2c(F)cc(F)cc2F)[C@H](c2ccc(OCCN3CC(COCCOc4ccc(C5=N[C@@H](C)c6nnc(C)n6-c6sc(C)c(C)c65)cc4)C3)cc2)Oc2ccc(O)cc21 [I-59] | 50 to 500 | 500 to 2500 | 50 to 500 | – | – | – | – | – |
| Cc1sc2c(c1C)C(c1ccc(N3CCC(O)(CN4CCN(c5ccc([C@H]6c7ccc(O)cc7CC[C@H]6c6ccc(F)cc6F)cc5)CC4)CC3)cc1)=N[C@@H](C)c1nnc(C)n1-2 [III-183] | < 50 | 500 to 2500 | 50 to 500 | – | – | – | – | – |
